In patent US20220380378A1 (ESSA Pharma, Inc., priority 2021, published 2022):
pIC50: −log10 of the molar value.

Tests used:
androgen receptor (AR) = target: T1, androgen receptor (AR) (Homo sapiens, UniProt P10275, T878A); assay: Androgen-induced PSA (6.1 kb)-luciferase reporter assay in LNCaP cells (R1881 1 nM); assay type: cell-based; parameters: endogenous in cells; host or cells: LNCaP; details: 24 h, read-out: PSA-Luc IC50 Range
T1 sequence (P10275 1-920 T878A): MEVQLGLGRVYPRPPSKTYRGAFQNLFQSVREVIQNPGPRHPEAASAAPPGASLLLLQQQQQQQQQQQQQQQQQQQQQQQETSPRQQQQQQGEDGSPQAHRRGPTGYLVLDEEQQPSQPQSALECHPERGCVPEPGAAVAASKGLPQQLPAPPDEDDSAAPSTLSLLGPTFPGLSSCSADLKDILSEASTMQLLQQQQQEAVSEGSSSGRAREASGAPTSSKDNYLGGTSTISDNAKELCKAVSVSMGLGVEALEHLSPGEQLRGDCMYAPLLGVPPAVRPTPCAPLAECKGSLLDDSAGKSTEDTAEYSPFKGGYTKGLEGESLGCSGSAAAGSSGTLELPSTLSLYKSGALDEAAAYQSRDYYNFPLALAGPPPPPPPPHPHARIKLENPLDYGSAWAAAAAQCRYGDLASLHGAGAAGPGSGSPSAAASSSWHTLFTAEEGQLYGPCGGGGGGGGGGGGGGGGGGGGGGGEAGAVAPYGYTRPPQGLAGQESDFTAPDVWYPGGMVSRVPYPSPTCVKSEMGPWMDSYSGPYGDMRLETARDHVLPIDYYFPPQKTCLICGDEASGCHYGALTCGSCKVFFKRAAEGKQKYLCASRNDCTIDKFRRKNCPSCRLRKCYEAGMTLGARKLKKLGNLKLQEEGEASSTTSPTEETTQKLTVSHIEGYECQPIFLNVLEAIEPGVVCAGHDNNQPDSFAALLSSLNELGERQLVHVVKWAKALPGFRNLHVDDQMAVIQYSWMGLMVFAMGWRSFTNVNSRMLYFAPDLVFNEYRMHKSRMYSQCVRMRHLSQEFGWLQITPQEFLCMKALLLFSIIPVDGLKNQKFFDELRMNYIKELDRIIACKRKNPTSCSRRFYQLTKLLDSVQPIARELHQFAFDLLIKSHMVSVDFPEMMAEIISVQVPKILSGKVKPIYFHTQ
In short: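 LNCaP cells transiently transfected with PSA (6.1 kb)-luciferase for 24 h, pretreated 1 h with compound or DMSO, then stimulated with 1 nM R1881 for 24 h. Firefly luciferase in lysates normalized to protein content; IC50 relative to R1881-induced vehicle activity.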

[1] = Microsomal stability assay, liver microsome half-life (human); assay type: in vitro ADME; details: pH 7.4; human liver microsomes 0.5 mg/mL, 1 μM compound, 37° C.; read-out: Liver microsome T1/2 Human
Text: (§1) Microsomal Stability Assay: Microsomal stability assay is a widely used in vitro model to characterize the metabolic conversion by phase I enzymes, such as cytochrome P450 (CYP) enzymes. Since metabolism is known to be highly variable in different species, microsomal stability assay is commonly run in multiple species. Metabolic stability of testing compound can be evaluated using human, rat, mouse, or other animal liver or intestine microsomes to predict intrinsic clearance.
(§2) The assay was carried out in 96-well microtiter plates at 37° C. Reaction mixtures (25 μL) contained a final concentration of 1 μM test compound, 0.5 mg/mL liver microsomes protein, and 1 mM NADPH and/or 1 mM UDPGA (with alamethicin) in 100 mM potassium phosphate, pH 7.4 buffer with 3 mM MgCl2. The incubation was done with N=1, but duplicate incubation at each time point can be prepared if necessary. At each of the time points (for example, 0, 15, 30, and 60 minutes), 150 μL of quench solution (100% acetonitrile with 0.1% formic acid) with internal standard was transferred to each well. Besides the zero minute controls, mixtures containing the same components except the NADPH can also be prepared as the negative control. Verapamil was included as a positive control to verify assay performance. Plates were sealed, vortexed, and centrifuged at 4° C. for 15 minutes at 4000 rpm. The supernatant is transferred to fresh plates for LC/MS/MS analysis.
(§3) Summarized conditions: [Compound]=1 μM, [LM]=0.5 mg/mL, [NADPH]=1 mM and/or [UDPGA]=1 mM, Buffer=100 mM Potassium Phosphate, pH 7.4 with 3 mM MgCl2, Time=0, 15, 30, and 60 min, and Temperature=37° C.
(§4) All samples were analyzed on LC/MS/MS using an AB Sciex API 4000 instrument, coupled to a Shimadzu LC-20AD LC Pump system. Analytical samples were separated using a Waters Atlantis T3 dC18 reverse phase HPLC column (20 mm×2.1 mm) at a flow rate of 0.5 mL/min. The mobile phase consisted of 0.1% formic acid in water (solvent A) and 0.1% formic acid in 100% acetonitrile (solvent B).
(§5) The extent of metabolism is calculated as the disappearance of the test compound, compared to the 0-min time incubation. Initial rates are calculated for the compound concentration and used to determine half-life (t½). […]

[2] = Microsomal stability assay, liver microsome half-life (mouse); assay type: in vitro ADME; details: pH 7.4; mouse liver microsomes 0.5 mg/mL, 1 μM compound, 37° C.; read-out: Liver microsome T1/2 Mouse
Text: as §1, §2, §3, §4, §5

[3] = Microsomal stability assay, liver microsome half-life (dog); assay type: in vitro ADME; details: pH 7.4; dog liver microsomes 0.5 mg/mL, 1 μM compound, 37° C.; read-out: Liver microsome T1/2 Dog
Text: as §1, §2, §3, §4
(§6) The extent of metabolism is calculated as the disappearance of the test compound, compared to the 0-min time incubation. Initial rates are calculated for the compound concentration and used to determine half-life (t½).

[4] = Microsomal stability assay, liver microsome half-life (monkey); assay type: in vitro ADME; details: pH 7.4; monkey liver microsomes 0.5 mg/mL, 1 μM compound, 37° C.; read-out: Liver microsome T1/2 Monkey
Text: as §1, §2, §3, §4, §6

[5] = Microsomal stability assay, liver microsome half-life (rat); assay type: in vitro ADME; details: pH 7.4; rat liver microsomes 0.5 mg/mL, 1 μM compound, 37° C.; read-out: Liver microsome T1/2 Rat
Text: as §1, §2, §3, §4, §5

SMILES | pIC50 (androgen receptor (AR)) | half-life at 1 μM [1] [min] | half-life at 1 μM [2] [min] | half-life at 1 μM [3] [min] | half-life at 1 μM [4] [min] | half-life at 1 μM [5] [min]
CS(=O)(=O)Nc1nccc(COc2nnc(-c3cc(Cl)c(OCCCl)c(C#N)c3)o2)n1 [Compound A37, N-(4-(((5-(3-chloro-4-(2-chloroethoxy)-5-cyanophenyl)-1,3,4-oxadiazol-2-yl)oxy)methyl)pyrimidin-2-yl)methanesulfonamide] | 5.70 to 6.30 | > 120 | – | – | – | –
CC(C)(c1ccc(OCc2ccnc(NS(C)(=O)=O)n2)cc1)c1cc(Cl)c2c(c1)OCCO2 [Compound A38] | < 5.70 | > 120 | – | – | – | –
CC(C)(c1ccc(-c2ccc3nc(NS(C)(=O)=O)nc(N)c3c2)cc1)c1cc(Cl)c(OCCCl)c(C#N)c1 [Compound A173] | > 6.30 | > 120 | > 120 | > 120 | > 120 | > 120
CC(c1cc(Cl)c(OCCCl)c(C#N)c1)n1cc(-c2ccc3nc(NS(C)(=O)=O)ncc3c2)cn1 (centres unmarked) [Compound A141] | < 5.70 | > 120 | > 120 | > 120 | 66 | > 120
CC(C)(c1ccc(OCc2ccnc(NS(C)(=O)=O)n2)cc1)c1ccc(OCC(O)CCl)cc1 (centres unmarked) [Compound A150, N-(4-((4-(2-(4-(3-chloro-2-hydroxypropoxy)phenyl)propan-2-yl)phenoxy)methyl)pyrimidin-2-yl)methanesulfonamide] | > 6.30 | > 120 | > 120 | > 120 | > 120 | > 120
CS(=O)(=O)NC12CC(COc3ccc4c(ccn4-c4cc(Cl)c(OCCCl)c(C#N)c4)c3)(C1)C2 [Compound A57, N-(3-(((1-(3-chloro-4-(2-chloroethoxy)-5-cyanophenyl)-1H-indol-5-yl)oxy)methyl)bicyclo[1.1.1]pentan-1-yl)methanesulfonamide] | > 6.30 | 69 | > 120 | > 120 | 68 | > 120
CC(C)(c1ccc(-c2cnc3c(c2)CCC3NS(C)(=O)=O)cc1)c1cc(Cl)c(OCCCl)c(C#N)c1 (centres unmarked) [Compound A217] | 5.70 to 6.30 | > 120 | > 120 | 50 | 56 | 26
CS(=O)(=O)Nc1nccc(COCCc2cc(Cl)c(OCCCl)c(C#N)c2)n1 [Compound A5] | < 5.70 | 55.8 | – | – | – | –
CC(C)(c1ccc(OC[C@H](O)CNS(C)(=O)=O)cc1)c1cc(Cl)c(OC[C@H](O)CCl)c(Cl)c1 [X, reference compound] | – | > 120 | – | – | – | –
CS(=O)(=O)Nc1nccc(COc2ccc3c(c2)CCCC3c2cc(Cl)c(OCCCl)c(C#N)c2)n1 (centres unmarked) [Compound A33, N-(4-(((5-(3-chloro-4-(2-chloroethoxy)-5-cyanophenyl)-5,6,7,8-tetrahydronaphthalen-2-yl)oxy)methyl)pyrimidin-2-yl)methanesulfonamide] | 5.70 to 6.30 | > 120 | > 120 | – | – | –
CS(=O)(=O)Nc1nccc(COc2nnc(-c3cc(Cl)c(OCCCl)c(C#N)c3)s2)n1 [Compound A41] | < 5.70 | > 120 | > 120 | – | – | –
CS(=O)(=O)Nc1nccc(COc2ccc3c(c2)CCC=C3c2cc(Cl)c(OCCCl)c(C#N)c2)n1 [Compound A32, N-(4-(((5-(3-chloro-4-(2-chloroethoxy)-5-cyanophenyl)-7,8-dihydronaphthalen-2-yl)oxy)methyl)pyrimidin-2-yl)methanesulfonamide] | 5.70 to 6.30 | 68.3 | > 120 | – | – | –
CS(=O)(=O)Nc1nccc(OCC23CC(C(=O)c4cc(Cl)c(OCCCl)c(C#N)c4)(C2)C3)n1 [Compound A8] | < 5.70 | 9.67 | – | – | – | –
CS(=O)(=O)Nc1nccc(OCC23CC(C(=O)c4ccc(OCCCl)cc4)(C2)C3)n1 [Compound A7] | < 5.70 | 84.3 | – | – | – | –
CNC(=O)c1ccc(N2C(=S)N(c3ccc(C#N)c(C(F)(F)F)c3)C(=O)C2(C)C)cc1F [Enzalutamide, enzalutamide, reference compound] | – | > 120 | > 120 | > 120 | > 120 | > 120
CS(=O)(=O)Nc1nccc(OC2CCN(C(=O)c3cc(Cl)c(OCCCl)c(C#N)c3)CC2)n1 [Compound A6, N-(4-((1-(3-chloro-4-(2-chloroethoxy)-5-cyanobenzoyl)piperidin-4-yl)oxy)pyrimidin-2-yl)methanesulfonamide] | < 5.70 | > 120 | – | – | – | –
CS(=O)(=O)Nc1nccc(COc2ccc3c(-c4cc(Cl)c(OCCCl)c(C#N)c4)cccc3c2)n1 [Compound A34, N-(4-(((5-(3-chloro-4-(2-chloroethoxy)-5-cyanophenyl)naphthalen-2-yl)oxy)methyl)pyrimidin-2-yl)methanesulfonamide] | 5.70 to 6.30 | > 120 | > 120 | – | – | –
CS(=O)(=O)Nc1nccc(COc2ccc3c(c2)CCN3c2cc(Cl)c(OCCCl)c(C#N)c2)n1 [Compound A30, N-(4-(((1-(3-chloro-4-(2-chloroethoxy)-5-cyanophenyl)indolin-5-yl)oxy)methyl)pyrimidin-2-yl)methanesulfonamide] | < 5.70 | – | – | – | – | –
CS(=O)(=O)Nc1nccc(COc2ccc3c(ccn3-c3cc(Cl)c(OCC(Cl)(Cl)Cl)c(C#N)c3)c2)n1 [Compound A22] | < 5.70 | – | – | – | – | –
CS(=O)(=O)Nc1ncc(Cn2cc3c(-c4cc(Cl)c(OCCCl)c(C#N)c4)cccc3n2)cn1 [Compound A161] | < 5.70 | – | – | – | – | –
CC(C)(c1ccc(-c2cnc3nc(NS(C)(=O)=O)cnc3c2)cc1)c1cc(Cl)c(OCCCl)c(C#N)c1 [Compound A219] | 5.70 to 6.30 | – | – | – | – | –
CS(=O)(=O)NC12CC(NCc3ccc4c(ccn4-c4cc(Cl)c(OCCCl)c(C#N)c4)c3)(C1)C2 [Compound A145] | 5.70 to 6.30 | – | – | – | – | –
